Assay results as given in PubChem BioAssay (NCI).
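Test compounds were applied to cells in 96-well plates for 48 hours at 5 doses. TGI: concentration producing complete growth inhibition.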

Columns and labels:
Assay in all cases: NCI anticancer screen, dose series, 48 h
786-0 renal = system: 786-0 renal
A549 NSCLC = system: A549 NSCLC
ACHN renal = system: ACHN renal
EKVX NSCLC = system: EKVX NSCLC
HCC-2998 colon = system: HCC-2998 colon
HL-60(TB) leukemia = system: HL-60(TB) leukemia
HT29 colon = system: HT29 colon
KM12 colon = system: KM12 colon
MDA-MB-231 breast = system: MDA-MB-231 breast
MDA-N = system: MDA-N
NCI-H522 lung = system: NCI-H522 lung
NCI/ADR-RES ovarian = system: NCI/ADR-RES ovarian
RPMI-8226 leukemia = system: RPMI-8226 leukemia
RXF 393 renal = system: RXF 393 renal
SF-295 CNS = system: SF-295 CNS
SN12C renal = system: SN12C renal
SNB-75 CNS = system: SNB-75 CNS
UACC-257 melanoma = system: UACC-257 melanoma
UO-31 renal = system: UO-31 renal

SMILES | TGI (786-0 renal) [µM] | TGI (A549 NSCLC) [µM] | TGI (ACHN renal) [µM] | TGI (EKVX NSCLC) [µM] | TGI (HCC-2998 colon) [µM] | TGI (HL-60(TB) leukemia) [µM] | TGI (HT29 colon) [µM] | TGI (KM12 colon) [µM] | TGI (MDA-MB-231 breast) [µM] | TGI (MDA-N) [µM] | TGI (NCI-H522 lung) [µM] | TGI (NCI/ADR-RES ovarian) [µM] | TGI (RPMI-8226 leukemia) [µM] | TGI (RXF 393 renal) [µM] | TGI (SF-295 CNS) [µM] | TGI (SN12C renal) [µM] | TGI (SNB-75 CNS) [µM] | TGI (UACC-257 melanoma) [µM] | TGI (UO-31 renal) [µM]
Cn1cc(-c2cnc(-c3cn(C)c4ccccc34)cn2)c2ccccc21 | 29.9 | > 100 | > 94.6 | > 100 | 41.7 | 8.66 | 36.6 | 14.8 | > 96.6 | 3.54 | 15.4 | 40.7 | > 44.4 | 24.7 | 11.7 | > 100 | 25.7 | > 100 | > 65
COC(=O)C1C(OC(=O)C(Cl)(c2ccccc2)c2ccccc2)CC2CCC1N2C (configuration not stated) | > 100 | > 100 | > 100 | > 100 | > 100 | > 100 | > 100 | > 100 | > 100 | > 100 | > 100 | > 100 | > 100 | > 100 | > 100 | > 100 | > 100 | > 100 | > 100
O=C(O)c1ccccc1CC1Cc2ccc3c(c2C1=O)CCC3 (configuration not stated) | > 100 | > 100 | > 100 | > 100 | > 100 | > 100 | > 100 | > 100 | > 100 | > 100 | > 100 | > 100 | > 100 | > 100 | > 100 | > 100 | > 100 | > 100 | > 100
CC(=O)OC[C@@H]1[C@H]2CC[C@]3(C)[C@@H](OC(C)=O)CC[C@H]3[C@@H]2CC[C@H]1C1(C)SCCS1 | > 25 | > 25 | > 25 | > 25 | > 25 | > 25 | > 25 | > 25 | > 25 | > 25 | > 25 | > 25 | > 25 | > 25 | > 25 | > 25 | > 25 | > 25 | > 25
CCOC(=O)C(NCc1ccc2c(c1)OCO2)(NC(=O)c1ccccc1)C(F)(F)F (configuration not stated) | > 100 | > 100 | > 100 | > 100 | > 100 | 82 | > 100 | > 100 | > 100 | > 100 | > 100 | > 100 | > 100 | > 100 | > 100 | > 100 | > 100 | > 100 | > 100
O=C1C(C(c2ccccc2)N2CCOCC2)=C(O)C(c2ccccc2)N1c1ccccc1 (configuration not stated) | > 10 | > 10 | > 10 | > 10 | > 10 | > 10 | > 10 | > 10 | > 10 | > 10 | > 10 | > 10 | > 10 | > 10 | > 10 | > 10 | > 10 | > 10 | > 10
CCN(CC)CCCNc1nc(=O)[nH]c(C)c1C(=O)Nc1c2ccccc2nc2ccccc12 | 32.6 | 44.2 | 57.4 | 74.5 | 80.6 | 60.9 | 26.2 | 26.5 | 51.3 | 23.7 | 21.3 | 45.7 | 47.4 | 97 | 27.3 | > 100 | 55.5 | 54.5 | 32.3
Cc1ccc(/C(=C\C(=O)C(=O)NC23CC4CC(CC(C4)C2)C3)Sc2ccccc2)cc1 | > 10 | – | > 10 | > 10 | > 10 | > 10 | > 10 | > 10 | > 10 | > 10 | > 10 | > 10 | > 10 | > 10 | > 10 | > 10 | > 10 | > 10 | > 10
CCOC(=O)[C@H](O)[C@@H](O)C(=O)NCc1ccc(C(=O)c2ccccc2)cc1 | > 100 | > 100 | > 100 | > 100 | > 100 | > 100 | > 100 | > 100 | > 100 | > 100 | > 100 | > 100 | > 100 | > 100 | > 100 | > 100 | > 100 | > 100 | > 100
CSCCC(N)P(C)(=O)O (configuration not stated) | > 100 | > 100 | > 100 | > 100 | > 100 | > 100 | > 100 | > 100 | > 100 | > 100 | > 100 | > 100 | > 100 | > 100 | > 100 | > 100 | > 100 | > 100 | > 100
COc1ccc(/C=C2\N=C3Sc4c(nc[nH]c4=O)N3C2=O)cc1 | > 100 | > 100 | > 100 | > 100 | > 100 | > 100 | > 100 | > 100 | > 100 | > 100 | > 100 | > 100 | > 100 | > 100 | > 100 | > 100 | > 100 | > 100 | > 100
O=C(O)C1=C(C(=O)O)N(c2ccncc2)C(c2ccco2)=CC1c1ccccc1[N+](=O)[O-] (configuration not stated) | 4.06 | 35.9 | 3.13 | 26.6 | 3.57 | 7.85 | 3.2 | 3.36 | 30.7 | 20.7 | 9.59 | > 69.9 | > 24.6 | 21.3 | 25.5 | 29.1 | 23.9 | 5.28 | 20.6
